pIC50: −log10 of the molar value. A value given as a limit tells only on which side of the number the result lay.

In one assay the target is T1, ALDH1A1 enzyme (Homo sapiens, UniProt P00352).
T1 sequence (P00352 1-501): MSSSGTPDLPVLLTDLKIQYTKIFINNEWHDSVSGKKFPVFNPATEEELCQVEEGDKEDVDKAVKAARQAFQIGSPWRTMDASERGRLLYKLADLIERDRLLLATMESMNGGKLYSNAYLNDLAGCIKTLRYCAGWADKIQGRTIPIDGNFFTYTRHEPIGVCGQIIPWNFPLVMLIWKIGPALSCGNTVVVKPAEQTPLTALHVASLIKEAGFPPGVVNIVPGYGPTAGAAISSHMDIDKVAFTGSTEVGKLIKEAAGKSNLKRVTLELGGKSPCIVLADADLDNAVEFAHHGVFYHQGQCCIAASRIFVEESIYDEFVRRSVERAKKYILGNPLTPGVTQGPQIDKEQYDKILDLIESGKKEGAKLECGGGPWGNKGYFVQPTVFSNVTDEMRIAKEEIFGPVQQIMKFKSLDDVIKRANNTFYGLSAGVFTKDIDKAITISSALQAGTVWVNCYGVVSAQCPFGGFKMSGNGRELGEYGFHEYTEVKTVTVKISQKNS
The assay can be described thus: ALDH1A1 enzymatic assay (in vitro). It is filed as biochemical. The following applies: ALDH1A1 enzyme 20 nM, NAD+ 1 mM, propionaldehyde 80 μM; read-out: ALDH1A1 IC50. In short, it runs like this:
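ALDH1A1 (20 nM final) in 100 mM HEPES pH 7.5, 0.01% Tween 20 was preincubated 15 min at RT with compound (968 pM–57.2 μM final), then started with 1 mM NAD+ and 80 μM propionaldehyde. NADH fluorescence (ex 340/em 450 nm) followed kinetically for 10 min; change normalized to no-inhibitor and no-enzyme controls for percent inhibition and curve fitting.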

For the next assay, the system named is MIA PaCa-2 cells. The assay can be described thus: MIA PaCa2 cell-based assay (1,536-well high-content imaging ALDEFLUOR assay). Further details: species or system human. The following applies: Homo sapiens, 0.5 h, ALDEFLUOR BAAA substrate 500 nM, 30 minutes. In outline: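 High-content ALDEFLUOR imaging readout: BAA-retaining cells in FITC channel scored against Hoechst-counted nuclei. Before imaging, MIA PaCa-2 cells seeded at 1,000 per well received final 500 nM BAAA and 0.5 nM Hoechst with compounds in 16-point series (1.4 nM to 47.8 μM), 30 min, 37° C.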

Consider `CC(=O)C1(c2ccccc2)CCN(c2c(C(=O)N3CCN(C(=O)C4CC4)CC3)cnc3ccc(F)cc23)CC1` [Example 215, 1-(1-(3-(4-(cyclopropanecarbonyl)piperazine-1-carbonyl)-6-fluoroquinolin-4-yl)-4-phenylpiperidin-4-yl)ethanone], for which the negative logarithm of the IC50 (pIC50) at ALDH1A1 enzyme was over 6.30; with MIA PaCa-2 cells, 6.00 to 6.30.
Regarding `CCS(=O)(=O)N1CCN(C(=O)c2cnc3sccc3c2N2CCC(C)(C#N)CC2)CC1` [Example 218, 1-(5-(4-(ethylsulfonyl)piperazine-1-carbonyl)thieno[2,3-b]pyridin-4-yl)-4-methylpiperidine-4-carbonitrile], the pIC50 at ALDH1A1 enzyme is over 6.30; in the assay on MIA PaCa-2 cells, 5.00 to 6.00.
For `C=CC(=O)N1CCN(c2c(C(=O)N3CCN(S(C)(=O)=O)CC3)cnc3ccc(F)cc23)CC1` [Example 220, 1-(4-(6-fluoro-3-(4-(methylsulfonyl)piperazine-1-carbonyl)quinolin-4-yl)piperazin-1-yl)prop-2-en-1-one] the same measures were 5.00 to 6.00 and under 5.00.
Regarding `CS(=O)(=O)N1CCN(C(=O)c2cnc3ccc(F)cc3c2N2CCN(C(=O)/C(C#N)=C/C3CC3)CC2)CC1` [Example 222, (e)-3-cyclopropyl-2-(4-(6-fluoro-3-(4-(methylsulfonyl)piperazine-1-carbonyl)quinolin-4-yl)piperazine-1-carbonyl)acrylonitrile], the pIC50 on ALDH1A1 enzyme was over 6.30; in the assay with MIA PaCa-2 cells, under 5.00.
Take `C[C@@H]1CN(C(=O)c2cnc3ccc(F)cc3c2N2CCC(C)(C#N)CC2)CCN1C(=O)C1CC1` [Example 224, (R)-1-(3-(4-(cyclopropanecareonyl)-3-methylpiperazine-1-carbonyl)-6-fluoroquinolin-4-yl)-4-methylpiperidine-4-carbonitrile]: the figures for the pIC50 at ALDH1A1 enzyme and in the assay on MIA PaCa-2 cells were 5.00 to 6.00 and under 5.00, respectively.
Turning to `C[C@@H]1CN(C(=O)c2cnc3ccc(F)cc3c2N2CCC(C)(C#N)CC2)C[C@H](C)N1S(C)(=O)=O` [Example 225, 1-(3-((3R*,5S*)-3,5-dimethyl-4-(methylsulfonyl)piperazine-1-carbonyl)-6-fluoroquinolin-4-yl)-4-methylpiperidine-4-carbonitrile], the figures for the negative-log IC50 (pIC50) on ALDH1A1 enzyme and in the assay with MIA PaCa-2 cells were 5.00 to 6.00 and under 5.00, respectively.
Consider `C[C@H]1CN(C(=O)c2cnc3ccc(F)cc3c2N2CCC(C)(C#N)CC2)CCN1C(=O)C1CC1` [Example 227, (S)-1-(3-(4-(cyclopropanecarbonyl)-3-methylpiperazine-1-carbonyl)-6-fluoroquinolin-4-yl)-4-methylpiperidine-4-carbonitrile], for which the pIC50 was over 6.30 at ALDH1A1 enzyme and 5.00 to 6.00 in the assay with MIA PaCa-2 cells.
With `C[C@@H]1CN(C(=O)c2cnc3ccc(F)cc3c2N2CCC(C)(C#N)CC2)C[C@H](C)N1C(=O)C1CC1` [Example 228, 1-(3-((3R*,5S*)-4-(cyclopropanecarbonyl)-3,5-dimethylpiperazine-1-carbonyl)-6-fluoroquinolin-4-yl)-4-methylpiperidine-4-carbonitrile], the pIC50 was 5.00 to 6.00 on ALDH1A1 enzyme and under 5.00 with MIA PaCa-2 cells.
On to `CC1(C#N)CCN(c2c(C(=O)N3CCN(S(C)(=O)=O)C4(CC4)C3)cnc3ccc(F)cc23)CC1` [Example 230, 1-(6-fluoro-3-(4-(methylsulfonyl)-4,7-diazaspiro[2.5]octane-7-carbonyl)quinolin-4-yl)-4-methylpiperidine-4-carbonitrile], for which the negative-log IC50 (pIC50) is over 6.30 on ALDH1A1 enzyme and 5.00 to 6.00 in the assay with MIA PaCa-2 cells.
Regarding `CC1(C#N)CCN(c2c(C(=O)N3CCN(C(=O)C4CC4)C(C)(C)C3)cnc3ccc(F)cc23)CC1` [Example 231, 1-(3-(4-(cyclopropanecarbonyl)-3,3-dimethylpiperazine-1-carbonyl)-6-fluoroquinolin-4-yl)-4-methylpiperidine-4-carbonitrile], the pIC50 on ALDH1A1 enzyme and with MIA PaCa-2 cells was under 5.00 each time.
On to `CC1(C#N)CCN(c2c(C(=O)N3CCN(C(=O)C4CC4)C4(CC4)C3)cnc3ccc(F)cc23)CC1` [Example 232, 1-(3-(4-(cyclopropanecarbonyl)-4,7-diazaspiro[2.5]octane-7-carbonyl)-6-fluoroquinolin-4-yl)-4-methylpiperidine-4-carbonitrile], for which the pIC50 at ALDH1A1 enzyme is over 6.30; in the assay with MIA PaCa-2 cells it was 5.00 to 6.00.
For `CC1(C#N)CCN(c2c(C(=O)N3CCN(C(=O)C4CC4)CC3)cnc3[nH]ncc23)CC1` [Example 237, 1-(5-(4-(cyclopropanecarbonyl)piperazine-1-carbonyl)-1H-pyrazolo[3,4-b]pyridin-4-yl)-4-methylpiperidine-4-carbonitrile], the pIC50 at ALDH1A1 enzyme was 5.00 to 6.00; in the assay on MIA PaCa-2 cells, under 5.00.
Take `C[C@H]1CN(C(=O)C2CC2)CCN1C(=O)c1cnc2ccc(F)cc2c1N1CCC(C)(C#N)CC1` [Example 238, (s)-1-(3-(4-(cyclopropanecarbonyl)-2-methylpiperazine-1-carbonyl)-6-fluoroquinolin-4-yl)-4-methylpiperidine-4-carbonitrile]: the negative-log IC50 (pIC50) on ALDH1A1 enzyme is 5.00 to 6.00; in the assay on MIA PaCa-2 cells it was under 5.00.
Consider `C[C@@H]1CN(C(=O)C2CC2)CCN1C(=O)c1cnc2ccc(F)cc2c1N1CCC(C)(C#N)CC1` [Example 239, (R)-1-(3-(4-(cyclopropanecarbonyl)-2-methylpiperazine-1-carbonyl)-6-fluoroquinolin-4-yl)-4-methylpiperidine-4-carbonitrile], for which the pIC50 at ALDH1A1 enzyme is over 6.30; with MIA PaCa-2 cells, 5.00 to 6.00.
For `C[C@@H]1CN(C(=O)C2CC2)C[C@H](C)N1C(=O)c1cnc2ccc(F)cc2c1N1CCC(C)(C#N)CC1` [Example 240, 1-(3-((2S*,6R*)-4-(cyclopropanecarbonyl)-2,6-dimethylpiperazine-1-carbonyl)-6-fluoroquinolin-4-yl)-4-methylpiperidine-4-carbonitrile], the pIC50 is 5.00 to 6.00 at ALDH1A1 enzyme and under 5.00 in the assay on MIA PaCa-2 cells.
For `C[C@@H]1CN(S(C)(=O)=O)CCN1C(=O)c1cnc2ccc(F)cc2c1N1CCC(C)(C#N)CC1` [Example 241, (R)-1-(6-fluoro-3-(2-methyl-4-(methylsulfonyl)piperazine-1-carbonyl)quinolin-4-yl)-4-methylpiperidine-4-carbonitrile] the same measures were 5.00 to 6.00 and under 5.00.
As to `CS(=O)(=O)N1CCN(C(=O)c2cnc3ccc(F)cc3c2N2CCC(C#N)(CC3CC3)CC2)CC1` [Example 243, 4-(cyclopropylmethyl)-1-(6-fluoro-3-(4-(methylsulfonyl)piperazine-1-carbonyl)quinolin-4-yl)piperidine-4-carbonitrile], the pIC50 at ALDH1A1 enzyme and with MIA PaCa-2 cells was over 6.30 each time.
For the compound `O=C(c1cnc2ccc(F)cc2c1N1CCC2(CC1)C(=O)Cc1ccccc12)N1CCN(C(=O)C2CC2)CC1` [Example 246, 1′-(3-(4-(cyclopropanecarbonyl)piperazine-1-carbonyl)-6-fluoroquinolin-4-yl)spiro[indene-1,4′-piperidin]-2(3H)-one], the pIC50 at ALDH1A1 enzyme was over 6.30; in the assay on MIA PaCa-2 cells it was 5.00 to 6.00.
Turning to `O=C(c1cnc2ccc(F)cc2c1N1CCC2(CCOC2=O)CC1)N1CCN(C(=O)C2CC2)CC1` [Example 248, 8-(3-(4-(cyclopropanecarbonyl)piperazine-1-carbonyl)-6-fluoroquinolin-4-yl)-2-oxa-8-azaspiro[4.5]decan-1-one], the negative-log IC50 (pIC50) was over 6.30 on ALDH1A1 enzyme and 5.00 to 6.00 in the assay with MIA PaCa-2 cells.
The corresponding values for `CS(=O)(=O)N1CCN(C(=O)c2cnc3ccc(F)cc3c2N2CCC3(CCOC3=O)CC2)CC1` [Example 249, 8-(6-fluoro-3-(4-(methylsulfonyl)piperazine-1-carbonyl)quinolin-4-yl)-2-oxa-8-azaspiro[4.5]decan-1-one] are over 6.30 and 5.00 to 6.00.
For `O=C(c1cnc2ccc(F)cc2c1N1CCC2(CCCC2=O)CC1)N1CCN(C(=O)C2CC2)CC1` [Example 250, 8-(3-(4-(cyclopropanecarbonyl)piperazine-1-carbonyl)-6-fluoroquinolin-4-yl)-8-azaspiro[4.5]decan-1-one], the negative logarithm of the IC50 (pIC50) was over 6.30 on ALDH1A1 enzyme and 5.00 to 6.00 with MIA PaCa-2 cells.
On to `CS(=O)(=O)N1CCN(C(=O)c2cnc3ccc(F)cc3c2N2CCC3(CCCC3=O)CC2)CC1` [Example 251, 8-(6-fluoro-3-(4-(methylsulfonyl)piperazine-1-carbonyl)quinolin-4-yl)-8-azaspiro[4.5]decan-1-one], for which the negative logarithm of the IC50 (pIC50) on ALDH1A1 enzyme was over 6.30; with MIA PaCa-2 cells, 6.00 to 6.30.
In the case of `CS(=O)(=O)N1CCN(C(=O)c2cnc3ccc(F)cc3c2N2CCN(S(=O)(=O)C3CC3)CC2)CC1` [Example 252, (4-(4-(cyclopropylsulfonyl)piperazin-1-yl)-6-fluoroquinolin-3-yl)(4-(methylsulfonyl)piperazin-1-yl)methanone], the pIC50 is over 6.30 at ALDH1A1 enzyme and under 5.00 in the assay with MIA PaCa-2 cells.

A word on the pIC50: it is the negative decadic logarithm of the IC50, by convention in mol/L.

Source of the values: US11795177B2, “Substituted quinoline analogs as aldehyde dehydrogenase 1A1 (ALDH1A1) inhibitors” (THE UNITED STATES OF AMERICA, AS REPRESENTED BY THE …, priority 2017, dated 2023).
